Source: patent publication US9096639B2, “17-hydroxy-17-pentafluorethyl-estra-4,9(10)-dien-11-acyloxyalkylene phenyl derivatives, methods for the production thereof and use thereof for treating diseases” (Bayer Intellectual Property GmbH, priority 2009, dated 2015)

Experiments:
[1] = Determination of hydrolytic stability (5:1 dioxane/buffer, HPLC); assay type: physicochemical; conditions: 5:1 dioxane/buffer solution, test ended after 24 or 192 hours, read-out: Hydrolytic stability t1/2
Protocol: The ester to be analyzed was dissolved in each case in a 5:1 mixture of dioxane and buffer solution (pH 1.2, pH 5.0 or pH 8.0) at 23° C. At different times, the content of ester and hydrolysis products (8S,11R,13S,14S,1 7S)-17-hydroxy-11-[4-((R)-1-hydroxyethyl)phenyl]-13-methyl-17-pentafluoroethyl-1,2,6,7,8,11,12,13,14,15,16,17-dodecahydrocyclopenta[a]phenanthren-3-one and/or (8S,11R,13S,14S,17S)-17-hydroxy-11-[4-((S)-1-hydroxyethyl)phenyl]-1 3-methyl-17-pentafluoroethyl-1,2,6,7,8,11,12,13,14,15,16,17-dodecahydrocyclopenta[a]phenanthren-3-one was determined by HPLC. The test was ended after 24 hours or 192 hours.

[2] = Determination of stability in human plasma; assay type: in vitro ADME
Protocol: (§1) A stock solution of 1.0 mg of the substance to be tested in a 9:1 mixture of acetonitrile and dimethyl sulphoxide was prepared. 20 μl of this stock solution were added at 37° C. to 1 ml of human plasma or rat plasma. To determine the content, 100 μl samples were each taken at different times. The enzyme activity was blocked by adding 300 μl of acetonitrile, the samples were centrifuged at 5000 rpm over 10 minutes and, in the supernatant, the content of ester and hydrolysis products (8S,11R,13S,14S,17S)-17-hydroxy-11-[4-((R)-1-hydroxyethyl)phenyl]-1 3-methyl-17-pentafluoroethyl-1,2,6,7,8,11,12,13,14,15,16,17-dodecahydrocyclopenta[a]phenanthren-3-one and/or (8S,11R,13S,14S,17S)-17-hydroxy-11-[4-((S)-1-hydroxyethyl)phenyl]-13-methyl-17-pentafluoroethyl-1,2,6,7,8,11,12,13,14,15,16,17-dodecahydrocyclopenta[a]phenanthrene-3-one was determined by HPLC. The concentration-time curves were used to calculate the degradation kinetics. The stability of the substance tested was reported as the half-life.

[3] = target: T1, human progesterone receptor B (Homo sapiens, UniProt P06401); test: Progesterone receptor transactivation test in stably transfected SK-N-MC cells (PR-B, MMTV-LUC reporter); assay type: cell-based; conditions: 0.1 nmol/l promegestone, 24 hours, read-out: PR-B IC50 (antagonistic potency)
T1 construct: expressed in transfected cells; host or cells: SK-N-MC human neuroblastoma cells, stably transfected with pRChPR-B-neo and pMMTV-LUC
T1 sequence (P06401 1-933): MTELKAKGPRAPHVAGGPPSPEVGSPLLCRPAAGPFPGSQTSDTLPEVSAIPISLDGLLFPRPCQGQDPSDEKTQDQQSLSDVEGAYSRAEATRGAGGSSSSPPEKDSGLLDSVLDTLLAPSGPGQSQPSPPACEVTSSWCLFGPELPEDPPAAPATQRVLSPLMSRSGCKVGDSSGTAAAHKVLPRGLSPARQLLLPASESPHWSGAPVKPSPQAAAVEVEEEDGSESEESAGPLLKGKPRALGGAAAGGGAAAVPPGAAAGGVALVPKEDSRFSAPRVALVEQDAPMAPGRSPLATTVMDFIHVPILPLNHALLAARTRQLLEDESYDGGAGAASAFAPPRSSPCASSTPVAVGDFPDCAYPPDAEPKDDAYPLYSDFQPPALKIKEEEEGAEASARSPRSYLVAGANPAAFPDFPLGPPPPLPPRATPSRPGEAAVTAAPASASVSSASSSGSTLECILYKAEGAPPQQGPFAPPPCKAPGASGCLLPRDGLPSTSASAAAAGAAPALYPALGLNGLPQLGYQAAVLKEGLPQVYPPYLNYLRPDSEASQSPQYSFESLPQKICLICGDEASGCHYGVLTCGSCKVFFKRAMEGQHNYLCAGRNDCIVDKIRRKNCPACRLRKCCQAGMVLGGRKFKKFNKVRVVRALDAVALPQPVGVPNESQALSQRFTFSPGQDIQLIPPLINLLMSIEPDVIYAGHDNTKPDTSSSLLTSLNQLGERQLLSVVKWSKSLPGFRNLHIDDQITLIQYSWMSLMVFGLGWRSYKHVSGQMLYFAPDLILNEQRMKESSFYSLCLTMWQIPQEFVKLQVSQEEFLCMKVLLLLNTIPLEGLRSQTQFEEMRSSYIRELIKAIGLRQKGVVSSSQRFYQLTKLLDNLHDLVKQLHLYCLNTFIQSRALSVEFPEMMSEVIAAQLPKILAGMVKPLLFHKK
Protocol: (§2) Progesterone receptor-antagonistic action in stable transfectants of human neuroblastoma cells (SK-N-MC cells) with the human progesterone A or progesterone B receptor and an MN-LUC reporter construct SK-N-MC cells (human neuroblastoma cells) which have been stably transfected with plasmids expressing the human progesterone receptor B (pRChPR-B-neo) or the human progesterone receptor A (pRChPR-A-neo) and a reporter construct (pMMTV-LUC) were incubated for 24 hours either in the absence (negative control) or in the presence of ascending amounts of the particular test compound (0.01 nmol/l, 0.1 nmol/l, 1 […], 100 nmol/l and […]), in order to determine the agonistic efficacy. As a positive control of the reporter gene induction, the cells were treated with the synthetic gestagen promegestone (0.01 nmol/l, 0.1 nmol/l, 1 nmol/l, 10 nmol/l, 100 nmol/l and […]). To determine the antagonistic activity, the cells were treated with 0.1 nmol/l promegestone and additionally with ascending amounts of the particular test compound (0.01 nmol/l, 0.1 nmol/l, 1 nmol/l, 10 nmol/l, 100 nmol/l and […]). The activity of the reporter gene LUC (LUC=luciferase) was determined in the cell lysates and measured as RLU (relative light units). All measurements are reported as % efficacy and as EC50 and IC50 concentrations.

[4] = Determination of stability in rat plasma; assay type: in vitro ADME; conditions: 37° C., read-out: Stability t1/2 in rat plasma (converted)
Protocol: as §1

[5] = target: T2, human progesterone receptor A (Homo sapiens, UniProt P06401); test: Progesterone receptor transactivation test in stably transfected SK-N-MC cells (PR-A, MMTV-LUC reporter); assay type: cell-based; conditions: 0.1 nmol/l promegestone, 24 hours, read-out: PR-A IC50 (antagonistic potency)
T2 construct: expressed in transfected cells; host or cells: SK-N-MC human neuroblastoma cells, stably transfected with pRChPR-A-neo and pMMTV-LUC
T2 sequence (P06401 1-769 isoform P06401-2): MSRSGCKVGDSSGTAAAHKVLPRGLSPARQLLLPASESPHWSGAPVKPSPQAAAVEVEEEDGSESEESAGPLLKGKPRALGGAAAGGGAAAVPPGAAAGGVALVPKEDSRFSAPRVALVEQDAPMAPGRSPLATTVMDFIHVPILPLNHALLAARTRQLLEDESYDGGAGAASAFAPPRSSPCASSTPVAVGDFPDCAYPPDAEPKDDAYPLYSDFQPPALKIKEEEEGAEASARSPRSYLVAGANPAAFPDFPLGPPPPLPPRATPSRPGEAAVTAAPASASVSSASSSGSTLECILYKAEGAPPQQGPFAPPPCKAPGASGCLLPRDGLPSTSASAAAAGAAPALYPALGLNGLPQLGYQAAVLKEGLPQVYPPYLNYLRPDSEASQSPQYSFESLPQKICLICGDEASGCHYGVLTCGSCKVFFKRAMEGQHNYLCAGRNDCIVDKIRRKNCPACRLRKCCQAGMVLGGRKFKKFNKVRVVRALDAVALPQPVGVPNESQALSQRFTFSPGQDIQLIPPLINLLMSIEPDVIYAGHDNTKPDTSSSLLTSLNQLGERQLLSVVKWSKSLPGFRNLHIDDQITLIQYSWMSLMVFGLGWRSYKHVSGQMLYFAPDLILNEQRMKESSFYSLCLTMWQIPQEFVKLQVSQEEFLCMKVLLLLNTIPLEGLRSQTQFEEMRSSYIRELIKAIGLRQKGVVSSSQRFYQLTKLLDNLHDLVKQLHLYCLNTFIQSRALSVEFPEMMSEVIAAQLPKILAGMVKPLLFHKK
Protocol: as §2

SMILES: C=CCOC(=O)N[C@H](C(=O)OC(C)c1ccc([C@H]2C[C@@]3(C)C(CC[C@@]3(O)C(F)(F)C(F)(F)F)C3CCC4=CC(=O)CCC4=C32)cc1)C(C)C (mixture of isomers) [Example 16, (S)-2-Allyloxycarbonylamino-3-methylbutyric acid (RS)-1-[4-((8S,11R,13S,14S,17S)-17-hydroxy-1 3-methyl-3-oxo-1 7-pentafluoroethyl-2,3,6,7,8,11,12,13,14,15,16,17-dodecahydro-1H-cyclopenta[a]phenanthren-11-yl)phenyl]ethyl ester]
- half-life ([1]; pH = 1.2, 23° C.): > 192 h
- half-life ([1]; pH = 8.0, 23° C.): > 192 h
- half-life ([2]; 37° C., read-out: Stability t1/2 in human plasma (converted)): > 1000 h
- half-life ([2]; method of working example 19, summary statement in description, read-out: half-life in human plasma): > 100 h
- IC50 [3]: 710 pM
- half-life [4]: 33.2 h
- IC50 [5]: 110 pM
